Among the data in ChEMBL document CHEMBL3638596, “Protease inhibitors” (2014) are Ki values, retold here.

Structures are written as SMILES.

One assay has as its target T1, Cathepsin K (Homo sapiens, UniProt P43235).
T1 sequence (P43235 whole entry): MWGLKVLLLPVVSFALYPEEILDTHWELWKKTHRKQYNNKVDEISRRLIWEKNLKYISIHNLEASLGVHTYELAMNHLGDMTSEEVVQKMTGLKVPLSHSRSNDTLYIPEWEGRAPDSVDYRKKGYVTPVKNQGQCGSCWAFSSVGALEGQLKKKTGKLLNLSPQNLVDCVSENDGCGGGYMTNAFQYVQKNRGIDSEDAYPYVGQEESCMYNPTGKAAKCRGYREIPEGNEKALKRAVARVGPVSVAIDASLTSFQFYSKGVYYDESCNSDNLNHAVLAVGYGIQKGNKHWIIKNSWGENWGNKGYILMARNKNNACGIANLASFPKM
The assay can be described thus: Enzyme Assay: Standard assay conditions for the determination of kinetic constants used a fluorogenic peptide substrate, typically H-D-Ala-Leu-Lys-AMC, and were determined in either 100 mM Mes/Tris, pH 7.0 containing 1 mM EDTA and 10 mM 2-mercaptoethanol or 100 mM Na phosphate, imM EDTA, 0.1% PEG4000 pH 6.5 or 100 mM Na acetate, pH 5.5 containing 5 mM EDTA and 20 mM cysteine, in each case optionally with […] as stabiliser. The enzyme concentration used was 5 nM. The stock substrate solution was prepared at 10 mM in DMSO. Screens were carried out at a fixed substrate concentration of 60 μM and detailed kinetic studies with doubling dilutions of substrate from 250 μM. The total DMSO concentration in the assay was kept below 3%. All assays were conducted at ambient temperature. Product fluorescence (excitation at 390 nm, emission at 460 nm) was monitored with a Labsystems Fluoroskan Ascent fluorescent plate reader.

Another assay deals with Cathepsin S (Homo sapiens, UniProt P25774). The assay can be described thus: Enzyme Assay: The assay uses baculovirus-expressed human cathepsin S and the boc-Val-Leu-Lys-AMC fluorescent substrate available from Bachem in a 384 well plate format, in which 7 test compounds can be tested in parallel with a positive control comprising a known cathepsin S inhibitor comparator. […] 2 μl of each 10 mM test compound is added to a separate well on row A, columns 1-10. Add 90 μl assay buffer containing 1 mM DTT and 2 nM cathepsin S to each well of rows B-H and 180 μl to row A.
Chain of Cathepsin S (P25774 whole entry): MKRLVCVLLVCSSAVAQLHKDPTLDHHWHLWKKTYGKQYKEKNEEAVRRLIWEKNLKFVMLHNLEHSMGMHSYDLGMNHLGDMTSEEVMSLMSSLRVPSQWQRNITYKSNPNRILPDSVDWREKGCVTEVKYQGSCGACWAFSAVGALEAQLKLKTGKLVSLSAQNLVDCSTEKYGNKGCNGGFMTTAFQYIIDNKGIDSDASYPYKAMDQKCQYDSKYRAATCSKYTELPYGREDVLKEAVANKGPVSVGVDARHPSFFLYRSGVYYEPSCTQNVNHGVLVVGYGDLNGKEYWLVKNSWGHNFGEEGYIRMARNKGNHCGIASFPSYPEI

One may read the Ki as a dissociation constant, usually derived from enzyme kinetics or from competition with a known ligand. Read a high Ki as a looser hold on the target. On to `C#C[C@@H]1CN(C(=O)[C@@H](NC(=O)c2ccc(-c3nc(N4CCN(C)CC4)sc3F)cc2)C2CCCC2)[C@@H]2C(=O)CO[C@H]12`, for which the Ki at Cathepsin K came to 0.0006 µM; on Cathepsin S, 2.9 µM.
